Structures are written as SMILES. In brackets after ≈: the same amount, converted by molar mass.

The nature of data set [1]: Resazurin-based cytotoxicity assay. The note with it: mouse, J774 macrophages, 50% loss of viability in J774 macrophage cell line after 24 hr exposure. The method, then:
(§1) J774 macrophages were cultured in Dulbeco's minimal essential medium (DMEM) supplemented with 10% heat inactivated fetal bovine serum. One day prior to performing the assay 2.5×10^4 cells were seeded on black 384 well. Compounds and controls (0.4% DMSO and 2% Triton X final concentrations) were added 6 hr after seeding. Survival was determined after 24 hr by resazurin reduction measurement. Addition of 0.02 mg/mL resazurin was followed by 4 hours incubation at 37° C. and subsequent fluorescence reading (530 nm/590 nm) using a Synergy H4 (BioTek) plate reader. Data are presented as a percent viability compared to the vehicle (0.4% DMSO) control with 100% being noncytotoxic.
On the technique in general: Alamar Blue is a resazurin reagent that responds to reducing activity.

A further data set relates to J774 macrophages. Put plainly: Resazurin-based cytotoxicity assay. To be noted: 50% loss of viability in J774 macrophage cell line after 24 hr exposure. The procedure: as §1
The test system of another data set is Mtb CDC1551 Mtb::lux. Put plainly: microbe, parasite or virus in culture. The data set is classed as cell-based, M. tuberculosis. The note with it: Mycobacterium tuberculosis, 120 h; 50% reduction in luminescence signal compared to controls; 5 days.
The target in a further data set is MtbTopI (Mycobacterium tuberculosis, UniProt P9WG49). Kind of data set: Anisotropy assay of DNA binding by MtbTopI. To be noted: compounds at their IC50 concentrations.
Sequence of MtbTopI (P9WG49 whole entry): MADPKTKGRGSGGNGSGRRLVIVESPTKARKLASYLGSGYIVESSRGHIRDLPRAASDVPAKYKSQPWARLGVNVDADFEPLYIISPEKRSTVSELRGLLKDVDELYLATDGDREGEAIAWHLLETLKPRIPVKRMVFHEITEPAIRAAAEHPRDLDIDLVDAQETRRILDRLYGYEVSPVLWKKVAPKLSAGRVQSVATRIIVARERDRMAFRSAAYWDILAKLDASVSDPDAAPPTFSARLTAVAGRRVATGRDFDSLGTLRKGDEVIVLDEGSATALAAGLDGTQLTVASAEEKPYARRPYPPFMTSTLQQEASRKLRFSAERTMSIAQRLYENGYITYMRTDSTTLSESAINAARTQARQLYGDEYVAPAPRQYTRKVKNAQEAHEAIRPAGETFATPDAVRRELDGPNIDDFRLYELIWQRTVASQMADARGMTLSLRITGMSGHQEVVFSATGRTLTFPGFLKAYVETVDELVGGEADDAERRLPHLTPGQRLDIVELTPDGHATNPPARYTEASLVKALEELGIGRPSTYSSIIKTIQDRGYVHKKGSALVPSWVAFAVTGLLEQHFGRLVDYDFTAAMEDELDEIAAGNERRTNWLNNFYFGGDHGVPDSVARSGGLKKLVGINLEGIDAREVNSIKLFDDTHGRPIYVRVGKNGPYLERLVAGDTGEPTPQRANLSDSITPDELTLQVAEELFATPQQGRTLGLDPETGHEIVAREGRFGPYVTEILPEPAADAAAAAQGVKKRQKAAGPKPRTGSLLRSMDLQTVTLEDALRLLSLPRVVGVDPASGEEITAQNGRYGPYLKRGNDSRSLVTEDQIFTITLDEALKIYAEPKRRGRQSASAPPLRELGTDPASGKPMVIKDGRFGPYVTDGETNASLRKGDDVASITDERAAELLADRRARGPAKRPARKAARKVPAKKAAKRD
The target in data set [2] is M. tuberculosis topoisomerase I (Mycobacterium tuberculosis, UniProt P9WG49). Put plainly: biochemical. To be noted: Table 3; read-out: MtbTopI IC50.
Sequence of M. tuberculosis topoisomerase I (P9WG49 whole entry): as above
The subject of a further data set is Mtb-lux. In kind it is cell-based, M. tuberculosis.
A further data set relates to M. smegmatis mc2 155. Kind of data set: M. smegmatis growth inhibition (MIC). The data set is classed as cell-based. To be noted: Mycolicibacterium smegmatis, MC2155.
The next data set deals with Mtb::lux. In kind it is cell-based, M. tuberculosis. To be noted: at higher concentrations; data not shown.
The test system of data set [3] is M. smegmatis mc2 155/pTA-noI. Kind of data set: microbe, parasite or virus in culture. In kind it is cell-based. The note with it: Mycolicibacterium smegmatis, MC2155, read-out: MIC, M. smegmatis mc2 155/pTA-noI.
Another data set relates to M. smegmatis. Put plainly: M. smegmatis loss of viability (viable colony counts). The data set is classed as cell-based.
Another data set deals with HEK. Kind of data set: HEK toxicity.
In the next data set the target is E. coli topoisomerase I (Escherichia coli, UniProt P06612). Kind of data set: Bacterial topoisomerase I relaxation activity inhibition assay (EcTopI). The data set is classed as biochemical. The procedure: The relaxation activity of bacterial topoisomerase I was assayed in a buffer containing 10 mM Tris-HCl, pH 8.0, 50 mM NaCl, 0.1 mg/mL gelatin, and 0.5 mM MgCl2. One microliter of the compounds dissolved in DMF (dimethylformamide) or solvent alone was mixed with 10 μl of the reaction buffer containing 10 ng of enzyme before the addition of 9 μl of reaction buffer containing 160 ng of supercoiled pBAD/Thio plasmid DNA purified by cesium chloride gradient as substrate. Following incubation at 37° C. for 30 min, the reactions were terminated by the addition of 4 μl of 50% glycerol, 50 mM EDTA, and 0.5% (v/v) bromophenol blue, and analyzed by agarose gel electrophoresis. The gels were stained in ethidium bromide and photographed under UV light.
Sequence of E. coli topoisomerase I (P06612 whole entry): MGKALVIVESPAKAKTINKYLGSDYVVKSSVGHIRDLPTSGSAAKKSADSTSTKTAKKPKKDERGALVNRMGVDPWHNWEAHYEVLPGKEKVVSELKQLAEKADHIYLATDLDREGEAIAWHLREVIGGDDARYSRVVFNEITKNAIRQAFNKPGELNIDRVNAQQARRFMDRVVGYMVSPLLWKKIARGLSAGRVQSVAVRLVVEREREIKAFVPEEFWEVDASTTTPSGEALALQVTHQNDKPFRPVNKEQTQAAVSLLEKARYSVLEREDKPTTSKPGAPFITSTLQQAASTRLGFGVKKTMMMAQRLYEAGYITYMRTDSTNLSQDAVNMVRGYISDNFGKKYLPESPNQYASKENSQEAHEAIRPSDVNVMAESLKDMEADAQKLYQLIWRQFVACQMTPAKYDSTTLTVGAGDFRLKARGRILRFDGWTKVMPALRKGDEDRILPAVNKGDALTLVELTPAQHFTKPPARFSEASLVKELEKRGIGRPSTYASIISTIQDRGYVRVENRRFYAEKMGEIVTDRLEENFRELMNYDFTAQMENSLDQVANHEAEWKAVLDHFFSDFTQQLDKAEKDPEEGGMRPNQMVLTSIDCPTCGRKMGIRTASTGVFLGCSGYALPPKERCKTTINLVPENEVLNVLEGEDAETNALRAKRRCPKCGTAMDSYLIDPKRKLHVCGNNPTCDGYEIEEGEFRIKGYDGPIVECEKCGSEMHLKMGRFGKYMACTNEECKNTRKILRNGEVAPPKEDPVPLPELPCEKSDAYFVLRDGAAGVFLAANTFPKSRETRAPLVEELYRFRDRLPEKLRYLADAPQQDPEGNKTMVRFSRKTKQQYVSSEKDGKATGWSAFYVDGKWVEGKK

The target of the next data set is T1, E. coli DNA gyrase (Escherichia coli, UniProt P0AES4+P0AES6).
T1 construct: purchased New England BioLabs
T1 sequence (P0AES4 whole entry, one chain of several): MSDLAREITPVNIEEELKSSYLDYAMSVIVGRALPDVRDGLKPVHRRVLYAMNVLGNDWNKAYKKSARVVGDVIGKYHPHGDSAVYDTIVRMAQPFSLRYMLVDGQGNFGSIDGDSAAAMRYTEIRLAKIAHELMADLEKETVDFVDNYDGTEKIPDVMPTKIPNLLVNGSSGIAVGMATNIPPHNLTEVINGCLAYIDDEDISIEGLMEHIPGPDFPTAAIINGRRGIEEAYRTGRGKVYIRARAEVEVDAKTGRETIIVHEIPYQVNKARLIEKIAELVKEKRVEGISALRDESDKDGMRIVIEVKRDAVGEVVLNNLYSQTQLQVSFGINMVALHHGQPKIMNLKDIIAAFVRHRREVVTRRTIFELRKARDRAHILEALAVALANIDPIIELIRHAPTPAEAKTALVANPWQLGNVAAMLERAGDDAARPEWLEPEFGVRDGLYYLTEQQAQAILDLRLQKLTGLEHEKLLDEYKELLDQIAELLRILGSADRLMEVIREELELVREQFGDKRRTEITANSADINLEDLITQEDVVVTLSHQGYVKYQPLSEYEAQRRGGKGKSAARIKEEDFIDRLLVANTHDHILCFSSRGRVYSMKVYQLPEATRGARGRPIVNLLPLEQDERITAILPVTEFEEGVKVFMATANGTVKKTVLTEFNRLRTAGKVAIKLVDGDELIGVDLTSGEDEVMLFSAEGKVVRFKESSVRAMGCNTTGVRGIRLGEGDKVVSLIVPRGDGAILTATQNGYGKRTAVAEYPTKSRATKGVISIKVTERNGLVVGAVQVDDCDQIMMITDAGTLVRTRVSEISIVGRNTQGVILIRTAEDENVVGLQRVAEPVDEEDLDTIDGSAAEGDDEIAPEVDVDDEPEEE
Put plainly: DNA gyrase supercoiling inhibition assay. The data set is classed as biochemical. The procedure:
DNA gyrase (obtained from New England BioLabs) supercoiling assays were carried out by mixing the compounds with 2 U of the enzyme in reaction buffer supplied by the manufacturer, followed by the addition of 300 ng of relaxed covalently closed circular DNA was for a final reaction volume of 20 μL. The samples were incubated at 37° C. for 30 minutes before being terminated by the addition of a buffer containing 5% SDS, 0.25% bromophenol blue, and 25% glycerol. The reactions were then analyzed by agarose gel electrophoresis.

The target of the next data set is T2, Human topoisomerase I (Homo sapiens, UniProt P11387).
T2 construct: purchased TopoGen
T2 sequence (P11387 1-765): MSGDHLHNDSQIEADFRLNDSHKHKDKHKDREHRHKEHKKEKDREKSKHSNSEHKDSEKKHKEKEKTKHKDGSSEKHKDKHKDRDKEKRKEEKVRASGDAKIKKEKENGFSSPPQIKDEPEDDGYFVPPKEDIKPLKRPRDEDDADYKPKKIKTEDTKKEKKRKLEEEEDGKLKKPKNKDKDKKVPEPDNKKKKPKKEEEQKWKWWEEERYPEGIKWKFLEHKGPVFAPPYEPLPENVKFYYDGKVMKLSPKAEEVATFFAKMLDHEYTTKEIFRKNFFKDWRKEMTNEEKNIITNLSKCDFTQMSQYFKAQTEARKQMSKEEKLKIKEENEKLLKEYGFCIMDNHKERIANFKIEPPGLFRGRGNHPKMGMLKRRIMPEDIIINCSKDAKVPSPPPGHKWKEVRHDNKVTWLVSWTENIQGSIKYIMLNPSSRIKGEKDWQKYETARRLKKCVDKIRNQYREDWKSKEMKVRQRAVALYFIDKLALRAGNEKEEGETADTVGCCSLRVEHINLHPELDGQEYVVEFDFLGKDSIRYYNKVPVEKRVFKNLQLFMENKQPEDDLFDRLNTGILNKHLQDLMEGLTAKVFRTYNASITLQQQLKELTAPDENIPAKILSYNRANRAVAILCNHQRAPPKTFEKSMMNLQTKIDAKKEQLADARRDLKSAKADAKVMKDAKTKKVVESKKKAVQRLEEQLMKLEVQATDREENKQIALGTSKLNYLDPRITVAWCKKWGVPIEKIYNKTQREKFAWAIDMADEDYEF
Kind of data set: Human topoisomerase I relaxation inhibition assay. In kind it is biochemical. The method, then: Human topoisomerase I (obtained from TopoGen) relaxation assays were carried out with 0.5 U of enzyme in reaction buffer supplied by the manufacturer. The enzyme was mixed with the indicated concentration of compound dissolved before 160 ng of supercoiled pBAD/Thio plasmid DNA was added in the same buffer, for a final volume of 20 μL. Following incubation at 37° C. for 30 minutes, the reactions were terminated with a buffer containing 5% SDS, 0.25% bromophenol blue, and 25% glycerol, and analyzed by agarose gel electrophoresis.

The target in the next data set is T3, Human Topoisomerase IIα (Homo sapiens, UniProt P11388).
T3 construct: purchased TopoGen
Put plainly: Human topoisomerase IIα decatenation inhibition assay. In kind it is biochemical. The method, then: Human Topoisomerase IIα (obtained from TopoGen) assays were carried out by adding the compounds to 180 ng of kinetoplast DNA (kDNA) in the buffer supplied by the manufacturer before the addition of 2 U of the enzyme. The samples were incubated for 15 minutes at 37° C. before the addition of 4 μl of stop buffer containing 5% sarkosyl, 0.0025% bromophenol blue, and 25% glycerol. The reactions were then analyzed by electrophoresis in 1% agarose gels containing 0.5 μg ml^−1 ethidium bromide before being photographed under UV light.

Broadly, the CC50 is the concentration giving 50% cytotoxicity. For orientation: IC50 means the concentration that gives 50% inhibition. For `CCCC[C@@H](CN[C@H](CN)CCCCNC)NCc1cccc2ccccc12` [Compound 2471-12, (S)—N6-methyl-N2-((S)-2-(naphthalen-1-ylmethylamino)hexyl)hexane-1,2,6-triamine], in [1], the CC50 at 24 h is about 100 µM. Further, the CC50 with J774 macrophages amounted to 104 µM. For the same compound, the 50% inhibitory concentration (IC50) with Mtb CDC1551 Mtb::lux was found to be 6.8 µM; in data set [2] it was 7.5 µM; on E. coli topoisomerase I, 7.5 µM. The “Effect on binding of MtbTopI to oligonucleotide substrate” value at MtbTopI was “did not inhibit”. The “Percent Mtb-lux killing 5 μg/mL” value with Mtb-lux came out at 70.9%. Besides, the figures for the MIC (in the data set on M. smegmatis mc2 155; in data set [3]) were 25 µM (≈ 9.62 µg/mL) and 12.5 µM (≈ 4.81 µg/mL), respectively. Besides, the “Reduction of Mtb CFU” value in the data set on Mtb::lux is reported as 1 log. Also, the “Time course of loss of viable colony counts, control cloning vector” value in the data set with M. smegmatis is listed as “rapid killing”. Also, in the data set with HEK, the “Percent HEK toxicity 6.25 μg/mL” value is reported as 15.2%.
In the case of `CCCC[C@@H](CN[C@H](CN)CCN)NCc1cccc2ccccc12` [Compound 2471-24, (S)—N2-((S)-2-(naphthalen-1-ylmethylamino)hexyl)butane-1,2,4-triamine], the half-maximal cytotoxic concentration (CC50) at 24 h in data set [1] was about 100 µM. Moreover, in the data set on J774 macrophages, the 50% cytotoxic concentration (CC50) worked out at 101 µM. Also, the concentration for half-maximal inhibition (IC50) with Mtb CDC1551 Mtb::lux was 8.4 µM; in [2], 7.5 µM; against E. coli DNA gyrase it was over 160 µM; on Human topoisomerase I it was over 160 µM; at E. coli topoisomerase I, 10 µM. Further, the “Percent Mtb-lux killing 5 μg/mL” value in the data set on Mtb-lux worked out at 64.3%. Moreover, the MIC with M. smegmatis mc2 155 amounted to 50 µM (≈ 17.1 µg/mL); in [3], 25 µM (≈ 8.56 µg/mL). For the same compound, the “Reduction of Mtb CFU” value in the data set on Mtb::lux turned out to be 1 log. Moreover, the “Percent HEK toxicity 6.25 μg/mL” value with HEK is reported as 5.4%.
As for `CCCC[C@@H](CN[C@@H](CN)CCCCNC)NCc1cccc2ccccc12` [Compound 2471-36], the CC50 at 24 h in data set [1] was about 40 µM. The CC50 with J774 macrophages was 36.5 µM. The IC50 in the data set with Mtb CDC1551 Mtb::lux is 3.3 µM; on Human Topoisomerase IIα, over 160 µM; in data set [2], 15 µM; against E. coli DNA gyrase, over 160 µM; at Human topoisomerase I, over 160 µM; at E. coli topoisomerase I, 20 µM. The “Percent Mtb-lux killing 5 μg/mL” value with Mtb-lux was found to be 99.2%. This compound also gave an MIC with M. smegmatis mc2 155 of 25 µM (≈ 9.62 µg/mL). In addition, the “Percent HEK toxicity 6.25 μg/mL” value with HEK came out at 15.3%.

Values taken from patent publication US9988341B2, “Bacterial topoisomerase inhibitors and use thereof” (THE FLORIDA INTERNATIONAL UNIVERSITY BOARD OF TRUSTEES, priority 2016, dated 2018).
